Molecules are shown by their SMILES. pIC50: −log10 of the molar value. A value given as a limit tells only on which side of the number the result lay.

The target of one assay is T1, Casein Kinase 2 (Homo sapiens, UniProt P68400).
T1 construct: purchased New England Biolabs 6010; host or cells: E. coli
Put plainly: Casein Kinase 2 selectivity assay. The assay is classed as biochemical. The settings on record: Table 4 kinase selectivity; 10 = approximate value; read-out: IC50, Assay 9 Casein Kinase 2. The procedure: (§1) Assays to test compound inhibition of other kinases were preformed using methods that measure the amount of phosphorylation of a biotinylated peptide substrate. Biotinylated peptide substrates were selected from the literature as appropriate for the enzyme being evaluated. […] Assay conditions vary slightly for each protein kinase, for example, insulin receptor kinase requires 10 mM MnCl2 for activity and Calmodulin-dependent protein kinase requires calmodulin and 2 mM CaCl2. The reaction mixture was dispensed into the wells of a streptavidin coated Flashplate and 1 μl drug stock in 100% DMSO was added to a 100 μl reaction volume resulting in a final concentration of 1% DMSO in the reaction. Enzyme was diluted in 50 mM Tris-HCl pH=8.0, 0.1% BSA and added to each well. The reaction was incubated for one hour at 30° C. in the presence of compound. After one hour the reaction mix was aspirated from the plate and the plate was washed with PBS containing 100 mM EDTA. The plate was read on a scintillation counter to determine ^33P-γ-ATP incorporated into the immobilized peptide. Test compounds were assayed in duplicate at 8 concentrations [100 tM, 10 μM, 1 μM, 100 nM, 10 nM, 1 nM, 100 μM, 10 μM]. A maximum and minimum signal for the assay was determined on each plate. The IC50 was calculated from the dose response curve of the percent inhibition of the maximum signal in the assay according to the formula [max signal−background/test compound signal−background (100)=% inhibition] by graphing the percent inhibition against the log concentration of test compound. Known inhibitor compounds appropriate for the kinase being assayed were also included on each plate.
(§2) VEGF-R (vascular endothelial growth factor receptor-2) is a fusion protein containing a polyhistidine tag at the N-terminus followed by amino acids 786-1343 of the rat VEGF-R2 kinase domain (GenBank Accession #U93306). CDK1 (cyclin dependent kinase 1) is isolated from insect cells expressing both the human CDK1 catalytic subunit and its positive regulatory subunit cyclin B (New England Biolabs, Beverly, Mass., Cat. #6020). CDK4 (cyclin dependent kinase 4) contains amino acids 769 to 921 of the mouse […] protein found in the GST-retinoblastoma protein construct (Santa Cruz Biotechnology, Santa Cruz, Calif.; Cat. #SC-4112). Insulin Receptor Kinase consists of residues 941-1313 of the cytoplasmic domain of the beta-subunit of the human insulin receptor (BIOMOL, Plymouth Meeting, Pa., Cat. #SE-195). Protein Kinase A is the catalytic subunit of cAMP dependent protein kinase-A purified from bovine heart (Upstate Biotech, Lake Placid, N.Y., Cat#14-114). PKC (protein kinase-C) is the gamma or beta isoform of the human protein produced in insect cells (BIOMOL, Plymouth Meeting, Pa., Cat. #SE-143). Casein Kinase 1 is a truncation at amino acid 318 of the C-terminal portion of the rat CK1 delta isoform produced in E.coli (New England Biolabs, Beverly, Mass., Cat. #6030). Casein Kinase 2 includes the alpha and beta subunits of the human CK2 protein produced in E.coli (New England Biolabs, Beverly, Mass., Cat. #6010). Calmodulin Kinase (calmodulin-dependent protein kinase 2) is a truncated version of the alpha subunit of the rat protein produced in insect cells (New England Biolabs, Beverly, Mass., Cat. #6060). Glycogen Synthase Kinase-3 is the beta isoform of the rabbit enzyme produced in E. coli (New England Biolabs, Beverly, Mass., Cat. #6040). MAP Kinase is the rat ERK-2 isoform containing a polyhistidine tag at the N-terminus produced in E. coli. and activated by phosphorylation with MEK1 prior to purification (BIOMOL, Plymouth Meeting, Pa., Cat. #SE-137). EGFR (epidermal growth factor receptor) is purified from human A431 cell membranes (Sigma, St. Louis, Mo., Cat.# E3641). PDGF-R (platelet derived growth factor receptor) is a fusion protein containing a polyhistidine tag at the N-terminus followed by nucleotides 1874-3507 of the human PDGF-R beta subunit kinase domain (Accession #M21616). […]

For the next assay, the target named is FGF-R2 (Homo sapiens, UniProt P21802). Put plainly: FGF-R2 kinase selectivity assay. The assay is classed as biochemical. The conditions noted are these: Table 4 kinase selectivity; read-out: IC50, Assay 15 FGF-R2. How it is done: Assays to test compound inhibition of other kinases were preformed using methods that measure the amount of phosphorylation of a biotinylated peptide substrate. Biotinylated peptide substrates were selected from the literature as appropriate for the enzyme being evaluated. The general procedure used to assay for kinase activity is as follows: A kinase reaction mix was prepared in 50 mM Tris-HCl pH=8, 10 mM MgCl2, 0.1 mM NaVO4, 1 mM DTT, 5-10 μM ATP, 0.25-1 μM biotinylated peptide substrate, 0.2-0.8 μCuries per well ^33P-γ-ATP [2000-3000 Ci/mmol]. Assay conditions vary slightly for each protein kinase, for example, insulin receptor kinase requires 10 mM MnCl2 for activity and Calmodulin-dependent protein kinase requires calmodulin and 2 mM CaCl2. The reaction mixture was dispensed into the wells of a streptavidin coated Flashplate and 1 μl drug stock in 100% DMSO was added to a 100 μl reaction volume resulting in a final concentration of 1% DMSO in the reaction. Enzyme was diluted in 50 mM Tris-HCl pH=8.0, 0.1% BSA and added to each well. The reaction was incubated for one hour at 30° C. in the presence of compound. After one hour the reaction mix was aspirated from the plate and the plate was washed with PBS containing 100 mM EDTA. The plate was read on a scintillation counter to determine ^33P-γ-ATP incorporated into the immobilized peptide. Test compounds were assayed in duplicate at 8 concentrations [100 tM, 10 μM, 1 μM, 100 nM, 10 nM, 1 nM, 100 μM, 10 μM]. A maximum and minimum signal for the assay was determined on each plate. The IC50 was calculated from the dose response curve of the percent inhibition of the maximum signal in the assay according to the formula [max signal−background/test compound signal−background (100)=% inhibition] by graphing the percent inhibition against the log concentration of test compound. Known inhibitor compounds appropriate for the kinase being assayed were also included on each plate.
Sequence of FGF-R2 (P21802 22-821, species assumed): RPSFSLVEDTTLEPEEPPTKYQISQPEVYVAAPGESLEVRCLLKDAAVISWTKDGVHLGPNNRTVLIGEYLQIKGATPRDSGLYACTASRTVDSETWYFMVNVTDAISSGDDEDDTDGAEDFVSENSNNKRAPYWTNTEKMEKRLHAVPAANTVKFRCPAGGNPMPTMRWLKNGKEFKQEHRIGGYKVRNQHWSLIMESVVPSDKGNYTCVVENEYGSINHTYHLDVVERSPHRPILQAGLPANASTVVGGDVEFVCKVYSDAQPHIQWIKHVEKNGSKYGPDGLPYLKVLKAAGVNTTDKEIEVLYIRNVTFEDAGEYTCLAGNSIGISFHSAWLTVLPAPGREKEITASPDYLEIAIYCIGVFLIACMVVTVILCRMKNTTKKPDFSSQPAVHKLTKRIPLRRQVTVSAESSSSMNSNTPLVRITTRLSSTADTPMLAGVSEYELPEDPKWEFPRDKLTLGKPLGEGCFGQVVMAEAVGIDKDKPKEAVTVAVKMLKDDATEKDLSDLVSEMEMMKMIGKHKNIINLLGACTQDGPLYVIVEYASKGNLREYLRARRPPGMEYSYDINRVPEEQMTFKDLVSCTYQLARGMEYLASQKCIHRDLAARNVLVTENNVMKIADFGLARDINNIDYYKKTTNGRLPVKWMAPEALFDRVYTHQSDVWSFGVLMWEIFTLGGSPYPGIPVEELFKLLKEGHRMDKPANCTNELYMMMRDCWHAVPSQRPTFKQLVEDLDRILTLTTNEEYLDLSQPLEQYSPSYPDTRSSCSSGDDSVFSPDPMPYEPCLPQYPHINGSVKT

Assay [1] addresses T2, Glycogen Synthase Kinase-3 (beta isoform) (Oryctolagus cuniculus, UniProt G1T8E2).
T2 construct: purchased New England Biolabs 6040; host or cells: E. coli
Put plainly: GSK-3 kinase selectivity assay. The assay is classed as biochemical, rabbit. The conditions noted are these: Table 4 kinase selectivity; read-out: IC50, Assay 11 GSK-3. The procedure:
as §1, §2

The next assay has as its target T3, Insulin Receptor Kinase (Homo sapiens, UniProt P06213).
T3 construct: consists of residues 941-1313 of the cytoplasmic domain of the beta-subunit of the human insulin receptor; purchased BIOMOL SE-195
Put plainly: Insulin Kinase selectivity assay. Type of assay: biochemical. The conditions noted are these: Table 4 kinase selectivity; read-out: IC50, Assay 13 Insulin Kinase. The procedure:
as §1, §2

Assay [2] addresses T4, PDGF-R (platelet derived growth factor receptor) (Homo sapiens, UniProt P09619).
T4 construct: polyhistidine (N)
Put plainly: PDGF-R kinase selectivity assay. The assay is classed as biochemical. The conditions noted are these: Table 4 kinase selectivity; read-out: IC50, Assay 14 PDGF-R. How it is done:
as §1, §2

T3 sequence (P06213 980-1352): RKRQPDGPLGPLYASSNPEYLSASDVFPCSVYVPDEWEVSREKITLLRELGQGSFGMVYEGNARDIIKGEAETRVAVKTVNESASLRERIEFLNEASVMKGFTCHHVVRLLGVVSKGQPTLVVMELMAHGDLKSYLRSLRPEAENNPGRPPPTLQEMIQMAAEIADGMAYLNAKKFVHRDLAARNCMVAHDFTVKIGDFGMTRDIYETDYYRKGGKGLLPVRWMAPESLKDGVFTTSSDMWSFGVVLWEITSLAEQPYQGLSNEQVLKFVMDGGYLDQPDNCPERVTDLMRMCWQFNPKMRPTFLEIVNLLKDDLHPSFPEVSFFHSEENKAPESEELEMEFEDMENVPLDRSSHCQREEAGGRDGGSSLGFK
T2 sequence (G1T8E2 1-432): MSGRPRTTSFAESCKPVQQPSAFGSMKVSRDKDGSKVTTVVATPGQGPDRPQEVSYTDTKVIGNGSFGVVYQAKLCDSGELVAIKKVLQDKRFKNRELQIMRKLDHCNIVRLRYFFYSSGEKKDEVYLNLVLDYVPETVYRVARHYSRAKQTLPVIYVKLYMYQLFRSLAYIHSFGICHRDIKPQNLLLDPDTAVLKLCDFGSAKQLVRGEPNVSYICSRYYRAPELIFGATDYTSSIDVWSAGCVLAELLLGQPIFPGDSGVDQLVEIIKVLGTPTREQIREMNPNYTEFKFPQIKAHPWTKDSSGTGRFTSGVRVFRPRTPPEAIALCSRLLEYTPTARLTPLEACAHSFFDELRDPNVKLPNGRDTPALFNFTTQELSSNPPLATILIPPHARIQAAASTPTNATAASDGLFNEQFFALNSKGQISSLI
T4 sequence (P09619 554-1106 limits assumed): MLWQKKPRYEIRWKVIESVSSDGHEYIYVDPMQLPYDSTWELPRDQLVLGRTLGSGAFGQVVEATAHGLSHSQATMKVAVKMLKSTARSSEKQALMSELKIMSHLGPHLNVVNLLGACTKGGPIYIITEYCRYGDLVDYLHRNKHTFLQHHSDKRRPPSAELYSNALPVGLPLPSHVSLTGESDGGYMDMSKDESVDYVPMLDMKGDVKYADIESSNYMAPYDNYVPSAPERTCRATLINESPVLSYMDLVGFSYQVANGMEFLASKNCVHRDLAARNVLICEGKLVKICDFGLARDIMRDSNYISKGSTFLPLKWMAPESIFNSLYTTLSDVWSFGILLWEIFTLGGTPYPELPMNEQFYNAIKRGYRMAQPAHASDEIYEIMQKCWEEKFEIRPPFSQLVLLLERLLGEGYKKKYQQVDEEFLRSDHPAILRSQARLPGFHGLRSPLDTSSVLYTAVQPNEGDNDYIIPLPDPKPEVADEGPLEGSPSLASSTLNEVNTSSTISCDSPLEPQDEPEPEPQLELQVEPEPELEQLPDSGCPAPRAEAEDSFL
T1 sequence (P68400 whole entry): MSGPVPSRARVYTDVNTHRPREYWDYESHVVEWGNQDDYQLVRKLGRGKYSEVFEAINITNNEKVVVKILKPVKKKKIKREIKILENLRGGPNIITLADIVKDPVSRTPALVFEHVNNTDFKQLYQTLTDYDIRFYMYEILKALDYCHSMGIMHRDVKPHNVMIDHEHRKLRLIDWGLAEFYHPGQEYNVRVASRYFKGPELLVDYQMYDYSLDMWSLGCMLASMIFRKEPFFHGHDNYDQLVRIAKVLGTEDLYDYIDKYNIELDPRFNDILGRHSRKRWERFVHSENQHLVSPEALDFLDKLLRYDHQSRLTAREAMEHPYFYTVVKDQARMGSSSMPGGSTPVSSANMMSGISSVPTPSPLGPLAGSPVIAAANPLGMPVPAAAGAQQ
T1 sequence (P67870 whole entry partner): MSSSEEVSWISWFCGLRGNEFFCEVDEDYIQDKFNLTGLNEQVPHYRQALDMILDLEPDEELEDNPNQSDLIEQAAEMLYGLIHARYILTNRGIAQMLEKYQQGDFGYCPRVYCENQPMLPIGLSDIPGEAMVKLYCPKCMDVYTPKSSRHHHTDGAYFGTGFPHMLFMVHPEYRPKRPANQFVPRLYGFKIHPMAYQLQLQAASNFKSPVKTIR

With `OCCCNc1cncc(-c2cncc(Nc3cccc(Cl)c3)n2)c1` [Cmd 4], the pIC50 on Casein Kinase 2 was less than 4.00; on FGF-R2, 6.68; in assay [1], 6.32; at Insulin Receptor Kinase, 5.77.

For `OCCCCNc1cncc(-c2cncc(Nc3cccc(Cl)c3)n2)c1` [Cmd 32], the pIC50 was less than 4.00 at Casein Kinase 2; 5.63 at FGF-R2; 5.40 in assay [1]; less than 4.00 at Insulin Receptor Kinase; 5.55 in assay [2].

Take `CN(C)CCNc1cncc(-c2cncc(Nc3cccc(Cl)c3)n2)c1` [Cmd 33, N′-[5-[6-[(3-chlorophenyl)amino]pyrazinyl]-3-pyridinyl]-N^2,N^2-dimethyl-1,2-ethanediamine]: the negative logarithm of the IC50 (pIC50) at Casein Kinase 2 is less than 4.00; at FGF-R2 it was 5.85; in assay [1], 4.94; on Insulin Receptor Kinase, less than 4.00; in assay [2], 4.53.

For `CN(C)CCCNc1cncc(-c2cncc(Nc3cccc(Cl)c3)n2)c1` [Cmd 35], the pIC50 on Casein Kinase 2 was less than 4.00; on FGF-R2, 5.51; in assay [1] it was 5.09; on Insulin Receptor Kinase it was less than 4.00; in assay [2] it was 5.60.

With `O=C(NCCCO)c1cncc(-c2cncc(Nc3cccc(Cl)c3)n2)c1` [Cmd 39], the pIC50 on Casein Kinase 2 was approximately 5.00; on FGF-R2, 5.74; in assay [1], 6.06; on Insulin Receptor Kinase, 5.74; in assay [2], 5.55.

Turning to `Clc1cccc(Nc2cncc(-c3cncc(NCCCc4ccncc4)c3)n2)c1` [Cmd 71], the pIC50 was less than 4.00 at Casein Kinase 2; 6.50 at FGF-R2; 6.80 in assay [1]; less than 4.00 on Insulin Receptor Kinase; 6.00 in assay [2].

As for `Clc1cccc(Nc2cncc(-c3cncc(NCCCc4cccnc4)c3)n2)c1` [Cmd 72], the pIC50 is less than 4.00 at Casein Kinase 2; 6.53 at FGF-R2; 6.50 in assay [1]; less than 4.00 on Insulin Receptor Kinase; 6.06 in assay [2].

Consider `Clc1cccc(Nc2cncc(-c3cncc(NCCCN4CCCCC4)c3)n2)c1` [Cmd 73], for which the pIC50 on Casein Kinase 2 is 5.20; at FGF-R2, 6.56; in assay [1], 6.31; on Insulin Receptor Kinase it was less than 4.00; in assay [2], 6.76.

As for `Clc1cccc(Nc2cncc(-c3cncc(NCCCn4cccn4)c3)n2)c1` [Cmd 75], the pIC50 is 5.09 on Casein Kinase 2, 6.49 on FGF-R2, 6.22 in assay [1] and less than 4.00 on Insulin Receptor Kinase.

Take `Clc1cccc(Nc2cncc(-c3cncc(NCCCn4cncn4)c3)n2)c1` [Cmd 76]: the negative-log IC50 (pIC50) at Casein Kinase 2 was 5.14; at FGF-R2, 6.82; in assay [1] it was 6.71; on Insulin Receptor Kinase, less than 4.00; in assay [2], 6.14.

The values above are taken from patent US6710048B2, “Pyrazine derivatives as modulators of tyrosine kinases” (Ortho-McNeil Pharmaceutical, Inc., priority 2000, dated 2004).
